Results published in patent US11419881B2, “Treatment of migraine” (priority 2019, dated 2022).
Where two headings read alike, the source gives them in different places.

Tests used:
[1] = Preclinical pharmacokinetic studies, intravenous doses; format: in vivo, rats, rabbits, or dogs; conditions: single repeated intravenous doses up to 2.5 mg/kg
[2] = Nasal spray 1.6 μg in women of reproductive age, core body temperature and sympathoadrenergic tone; format: in vivo, human
Protocol: It also changed the tone of the sympathoadrenergic system (as assessed by measuring physiologic sinus arrhythmia) within 5 minutes of administration, and the effect persisted for 15 to 20 minutes.

[3] = test system: isolated human nasal chemosensory neurons; assay: Electrophysiology: inward currents in isolated human nasal chemosensory neurons; format: cell-based
[4] = in vivo
[5] = Reflex (autonomic) activity after nasal administration in human volunteers; format: in vivo; conditions: nasal 1.6 μg
Protocol: (§1) The half effective dose of this effect was 0.087 μg.

[6] = Preclinical pharmacokinetic studies, nasal doses; format: in vivo; conditions: repeated or single escalating nasal doses up to 100 μg/rat, 400 μg/rabbit, 600 μg/dog
[7] = Exploratory single-blind study in chronic migraine subjects (HAM-A, HAM-D, VRS, resting state fMRI)
[8] = format: in vivo, human
[9] = Ames reverse mutation assay
[10] = test system: nasal septal chemosensory mucosa; assay: Electrophysiology: depolarization of the nasal septal chemosensory mucosa; design: species or system human
[11] = Acute and multidose (28 day) toxicity studies, nasal and intravenous; format: in vivo, rats, mice, rabbits and dogs
estrogen receptors = assay: In vitro agonist/antagonist activity on estrogen receptors; format: biochemical
glucocorticoid receptors = molecular target: T1, glucocorticoid receptors (Homo sapiens, UniProt P04150); assay: In vitro agonist/antagonist activity on glucocorticoid receptors; format: biochemical
T1 sequence (P04150 1-777): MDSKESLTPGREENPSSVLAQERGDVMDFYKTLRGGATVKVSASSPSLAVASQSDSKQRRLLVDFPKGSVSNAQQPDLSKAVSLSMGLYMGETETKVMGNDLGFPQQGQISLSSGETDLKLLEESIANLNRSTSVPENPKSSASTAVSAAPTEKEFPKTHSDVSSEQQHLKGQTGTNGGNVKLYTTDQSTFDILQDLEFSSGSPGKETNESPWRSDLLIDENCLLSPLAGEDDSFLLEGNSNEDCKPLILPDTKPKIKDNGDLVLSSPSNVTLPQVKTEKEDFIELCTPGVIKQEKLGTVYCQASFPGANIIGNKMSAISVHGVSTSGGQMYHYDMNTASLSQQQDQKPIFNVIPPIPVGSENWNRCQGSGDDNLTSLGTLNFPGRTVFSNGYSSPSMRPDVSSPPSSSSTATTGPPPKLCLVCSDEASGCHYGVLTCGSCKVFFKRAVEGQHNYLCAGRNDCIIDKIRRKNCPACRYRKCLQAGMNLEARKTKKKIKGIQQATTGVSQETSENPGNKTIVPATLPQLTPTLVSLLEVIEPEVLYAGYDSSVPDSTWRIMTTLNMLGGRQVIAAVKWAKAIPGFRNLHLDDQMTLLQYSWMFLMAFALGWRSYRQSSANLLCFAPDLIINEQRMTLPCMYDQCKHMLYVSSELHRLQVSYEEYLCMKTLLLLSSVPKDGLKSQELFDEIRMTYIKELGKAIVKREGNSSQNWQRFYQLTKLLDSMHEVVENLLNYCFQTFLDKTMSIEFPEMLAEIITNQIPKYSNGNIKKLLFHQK

[12] = Hot flashes in menopausal women after nasal administration; format: in vivo, human
From the text: 16α,17α-Epoxy-10β-hydroxyestr-4-en-3-one decreased parasympathetic system tone resulting in increased sympathetic activity and stimulation of β2 adrenergic receptors in the bronchiole smooth muscle that induced bronchodilation; (b) increased skin conductance amplitude is the result of increased skin secretions, which are produced by preponderance of the sympathetic nervous system tone (or decreased parasympathetic tone); (c) decreased body temperature is explained by increased activity of the posterior (adrenergic) hypothalamus and decreased parasympathetic tone (anterior hypothalamus).

progestin receptors = molecular target: T2, progestin receptors (Homo sapiens, UniProt P06401); assay: In vitro agonist/antagonist activity on progestin receptors; format: biochemical
T2 sequence (P06401 1-933): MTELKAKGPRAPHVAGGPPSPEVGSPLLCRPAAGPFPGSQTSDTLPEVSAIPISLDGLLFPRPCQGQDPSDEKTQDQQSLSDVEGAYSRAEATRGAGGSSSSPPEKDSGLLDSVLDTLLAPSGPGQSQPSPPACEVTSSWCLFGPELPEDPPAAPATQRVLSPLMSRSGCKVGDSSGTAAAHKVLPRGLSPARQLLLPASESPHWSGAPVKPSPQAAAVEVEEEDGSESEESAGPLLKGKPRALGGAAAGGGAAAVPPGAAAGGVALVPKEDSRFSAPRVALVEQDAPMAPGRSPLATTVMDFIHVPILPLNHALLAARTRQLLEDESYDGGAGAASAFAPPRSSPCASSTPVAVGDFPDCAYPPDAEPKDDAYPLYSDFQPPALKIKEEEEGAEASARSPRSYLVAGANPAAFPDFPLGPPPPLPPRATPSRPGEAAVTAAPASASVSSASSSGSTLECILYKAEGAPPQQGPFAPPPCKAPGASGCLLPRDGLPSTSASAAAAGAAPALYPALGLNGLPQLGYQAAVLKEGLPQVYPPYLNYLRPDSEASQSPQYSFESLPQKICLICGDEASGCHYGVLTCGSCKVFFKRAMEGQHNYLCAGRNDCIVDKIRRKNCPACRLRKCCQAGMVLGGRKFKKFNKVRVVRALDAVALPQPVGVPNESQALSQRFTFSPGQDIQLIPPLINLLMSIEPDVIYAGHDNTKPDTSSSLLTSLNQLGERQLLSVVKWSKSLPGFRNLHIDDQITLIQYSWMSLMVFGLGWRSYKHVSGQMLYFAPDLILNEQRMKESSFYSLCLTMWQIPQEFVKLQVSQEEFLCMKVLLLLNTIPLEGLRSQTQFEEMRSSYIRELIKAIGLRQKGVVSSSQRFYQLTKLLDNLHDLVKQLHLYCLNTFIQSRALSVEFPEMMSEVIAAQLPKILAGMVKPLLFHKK

[13] = Nasal spray 0.5 μg versus vehicle in 14 women of reproductive age, physiologic parameters; format: in vivo, human; conditions: compared to vehicle
[14] = In vivo bone marrow micronucleus test
[15] = Reproductive toxicity studies in pregnant rabbits; format: in vivo; conditions: intravenous up to 2.5 mg/kg/day during organogenesis
[16] = test system: nasal chemosensory mucosa; assay: Electrogram from the nasal chemosensory mucosa of human volunteers; format: in vivo
Protocol: as §1

androgen receptors = molecular target: T3, androgen receptors (Homo sapiens, UniProt P10275); assay: In vitro agonist/antagonist activity on androgen receptors; format: biochemical
T3 sequence (P10275 1-920): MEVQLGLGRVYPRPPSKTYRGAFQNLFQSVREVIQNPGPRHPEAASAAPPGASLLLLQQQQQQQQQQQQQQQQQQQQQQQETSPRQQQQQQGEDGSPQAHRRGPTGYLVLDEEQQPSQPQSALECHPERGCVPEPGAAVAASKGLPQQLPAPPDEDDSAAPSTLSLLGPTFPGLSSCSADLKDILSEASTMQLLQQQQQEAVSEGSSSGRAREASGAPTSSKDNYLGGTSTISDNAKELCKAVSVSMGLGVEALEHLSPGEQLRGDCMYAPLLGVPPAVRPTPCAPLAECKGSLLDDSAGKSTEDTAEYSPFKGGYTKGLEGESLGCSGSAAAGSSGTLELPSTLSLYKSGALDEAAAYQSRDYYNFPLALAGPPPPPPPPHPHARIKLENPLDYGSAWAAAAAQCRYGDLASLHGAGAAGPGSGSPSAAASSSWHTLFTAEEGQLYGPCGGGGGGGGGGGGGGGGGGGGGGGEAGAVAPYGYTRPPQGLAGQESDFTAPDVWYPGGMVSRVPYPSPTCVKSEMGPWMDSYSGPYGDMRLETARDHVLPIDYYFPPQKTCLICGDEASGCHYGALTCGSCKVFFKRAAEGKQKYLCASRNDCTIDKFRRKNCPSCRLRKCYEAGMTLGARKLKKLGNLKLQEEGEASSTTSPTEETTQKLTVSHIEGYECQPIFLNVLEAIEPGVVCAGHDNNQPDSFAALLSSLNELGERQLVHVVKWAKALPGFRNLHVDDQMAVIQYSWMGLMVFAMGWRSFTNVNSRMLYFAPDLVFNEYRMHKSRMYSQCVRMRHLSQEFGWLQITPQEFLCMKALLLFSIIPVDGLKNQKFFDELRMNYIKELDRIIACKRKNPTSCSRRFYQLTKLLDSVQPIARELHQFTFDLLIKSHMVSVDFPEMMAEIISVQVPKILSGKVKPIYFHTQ

[17] = migraine subjects, 6.4 μg nasal, relative to placebo
[18] = after single dose nasal administration
[19] = women with PMDD, nasal, versus placebo

In the case of `C[C@]12CC[C@H]3[C@@H](CCC4=CC(=O)CC[C@@]43O)[C@@H]1C[C@H]1O[C@H]12` [16α,17α-epoxy-10β-hydroxyestr-4-en-3-one], the “plasma concentrations, dose dependence” value [1] is reported as “dose-proportional”, the “plasma concentrations, time course” value [1] is reported as “decreased rapidly” and the “decrease in core body temperature” value [2] is reported as 1±0.23 °C. The “latency of decrease in core body temperature” value [2] was 0.5 to 4 min, the “persistence of change of sympathoadrenergic tone” value [2] was 15 to 20 min and the “persistence of decrease in core body temperature” value [2] was 9 ± 2.5 min. For the same compound, the “time to change of sympathoadrenergic tone (physiologic sinus arrhythmia)” value [2] was ≤ 5 minutes, the “inward currents in isolated human nasal chemosensory neurons” value ([3]; isolated neurons) was “induced inward currents” and the “concentration giving maximal response (amplitude)” value ([3]; response amplitude increased with concentration) was 10^−7 to 10^−6 M. The systemic exposure [4] was “lack of systemic exposure”, the “body core temperature (external ear canal)” value [5] was “decreased body core temperature” and the cardiac rate [5] was “no significant change”. The “depth of the inspiratory cycle of respiration” value [5] was “significantly increased amplitude”, the “latency of modulation of reflex activity after the electrogram” value [5] was 5 to 10 s and the “skeletal muscle tone (electromyogram, chin muscles)” value [5] was “decreased skeletal muscle tone”. For the same compound, the “skin conductance (electrodermal activity)” value ([5]; palmar surface of fourth and fifth finger) was “increased amplitude of the skin conductance”, the respiration rate ([5]; within physiologic range) was “decreased respiration rate” and the systemic exposure [6] was “very low systemic exposure”. For the same compound, the “functional connectivity of the amygdala with the anterior occipital lobe and right middle occipital lobe (fMRI)” value [7, 17] was “increased functional connectivity”, the “functional connectivity of the hypothalamus with the anterior orbital gyrus, right medial orbital gyrus and pons (fMRI)” value [7, 17] was “decreased functional connectivity” and the “functional connectivity of the right thalamus with left orbitofrontal cortex, superior parietal lobe, left insular cortex and left primary motor cortex (fMRI)” value [7, 17] was “decreased functional connectivity”. The “functional connectivity of the right thalamus with the left somatosensory cortex (fMRI)” value [7, 17] was “increased functional connectivity”, the tolerability ([7]; single nasal 6.4 μg, all three subjects) was “tolerated” and the “mean decrease in headache pain intensity score (VRS, 6-point) relative to placebo” value ([7]; two migraine subjects, single nasal 6.4 μg, 15 minutes, p<0.01) was 2.5. For the same compound, the “anxiety scores (HAM-A)” value ([7]; two migraine subjects, single nasal 6.4 μg, p<0.01) was “significantly improved”, the “depression scores (HAM-D)” value ([7]; two migraine subjects, single nasal 6.4 μg, not statistically significant) was “improvement trend” and the persistence of improvements [8, 18] was “approximately 5 hours”. The “time to appearance of improvements” value [8, 18] was ≤ 30 min, the serious adverse events ([8]; in vivo) was “No serious adverse events were reported” and the side effects ([8]; in vivo) was “minimal and similar to administration of placebo”. For the same compound, the “cortical behavioral symptoms (headache, tension)” value [8, 19] was “significant improvements”, the “hypothalamic behavioral symptoms (fatigue, anger, craving for foods)” value [8, 19] was “significant improvements” and the “limbic system behavioral symptoms (mood swings, depression, lack of interest)” value [8, 19] was “significant improvements”. The “mutagenic or clastogenic potential” value [9] was “no evidence of mutagenic or clastogenic potential”, the “depolarization of the nasal septal chemosensory mucosa” value [10] was “electrotonic depolarization” and the “deaths, adverse clinical signs, effects on laboratory or pathology parameters” value ([11]; same nasal and intravenous doses, all species) was “no deaths or adverse clinical signs or effects on laboratory or pathology parameters observed”. The tolerability ([11]; single nasal up to 100 μg/rat, 400 μg/rabbit, 600 μg/dog, repeated nasal up to 50 μg/rat/day, 300 μg/dog/day, iv single and repeated up to 2.5 mg/kg, 28 day) was “well tolerated in all species tested”, the “agonist or antagonist activity on estrogen receptors” value (estrogen receptors) was “no agonist or antagonist activity” and the “agonist or antagonist activity on glucocorticoid receptors” value (glucocorticoid receptors) was “no agonist or antagonist activity”. The “number, severity and bother of hot flashes” value [12] was “decreased number, severity and bother of hot flashes”, the “agonist or antagonist activity on progestin receptors” value (progestin receptors) was “no agonist or antagonist activity” and the cardiac frequency [13] was “not statistically significant increase”. The core body temperature [13] was “statistically significant decreases”, the galvanic skin reflex [13] was “statistically significant decreases” and the respiratory frequency [13] was “statistically significant decreases”. The skeletal muscle tone [13] was “statistically significant decreases”, the “mutagenic or clastogenic potential” value [14] was “no evidence of mutagenic or clastogenic potential” and the “effects on maternal or litter parameters” value [15] was “no adverse effects on maternal or litter parameters”. For the same compound, the “half effective dose of electrogram activation” value ([16]; human volunteers of both sexes) was 0.087 µg, the “activation of the electrogram recorded from the nasal chemosensory mucosa” value ([16]; microgram quantities, volunteers of both sexes) was “concentration dependent activation” and the “agonist or antagonist activity on androgen receptors” value (androgen receptors) was “no agonist or antagonist activity”.
